Results taken from US20130281400A1, “Metabolic Downregulation for Cell Survival” (Wake Forest University Health Sciences, priority 2010, published 2013).

Columns and labels:
[1] = system: C2C12 cells, murine myoblasts; assay: MTS assay of metabolic activity of viable cells under hypoxia (0.1% O2) with daily adenosine; format: cell-based
Experimental: 500 μL of a cell suspension (C2C12 cells, murine myoblasts) in high glucose Dulbecco's modified Eagle's medium (DMEM, Gibco) containing 10% FBS, 500 U/mL penicillin and 500 μg/mL streptomycin was placed in each well of a 48-well culture plate at a density of 1052 (FIG. 2) and 2105 (FIG. 3) cells/cm^2. Cells were incubated for 24 hr in normoxic conditions (21% O2, 37° C.) prior to placement in a hypoxic chamber. At day 0, the plates designated as the hypoxic group were transferred to the hypoxic chamber (0.1% O2). […] Another group receiving daily doses of adenosine ([…], achieved by serial dilution) was incubated for up to 7 days under hypoxia and then placed back into normoxic conditions without additional supply of adenosine. Adenosine was refreshed by the daily exchange of media in which adenosine was completely dissolved. Media to be used under hypoxia was placed in the hypoxic chamber 24 hr prior to use for deoxygenation down to 2% O2. The metabolic activity of viable cells at each pre-determined time point was assessed using an MTS assay, which measures mitochondrial activity of cells. Adenosine was used with C2C12 at passage 17, the murine myoblast cell lines, because of their relatively high metabolic activity and proliferation rate. […] Based on the microscopic observations of these cell stained with Giemsa, it was not seen that whole population of cells completely reached the state of necrosis up to the latest time point tested, as a few populations of attached cells were still observed. It is expected that those remaining cells eventually die. […] The effect of dose was also evaluated on a degree of cellular activity (FIG. 3). […] Based on this outcome, the minimum effective concentration of adenosine appears to be about 1 mM under this experimental condition. The reason for 1 mM treated cells not declining up to the duration tested may potentially have been the lower starting number of cells. […] Finally, the long term effect of adenosine was tested on resuming its proliferation after its supply is stopped. The duration tested under the effect of adenosine was 22 days, as the angiogenesis process is known to take 2-3 weeks (Cotton, 1996, Trends Biotechnol, 14(5):158-62; […] et al., 1996, Biomaterials, 17(3):277-84) for completion.

muscle tissue = assay: adenosine injected into muscle tissue; format: in vivo
Text: Adenosine, a nucleoside known for its function as an energy transferring molecule, is also known to function as a modulator of hypoxia-induced ion-channel arrest, which eventually leads to lowering of ATP consumption, and thus oxygen demand. Moreover, it is also known to stimulate angiogenesis. Thus, the present invention provides for the application of adenosine to cell-seeded scaffolds under the hypoxic condition to improve cell survival rate via the downregulation of metabolic rate, and thus lowering oxygen demand and consumption. As contemplated herein, agonists to adenosine may also be used in a similar manner to lower the oxygen demand of cells and tissues. […] Adenosine may be administered alone as a composition or within a formulation, as would be understood by those skilled in the art.

Nc1ncnc2c1ncn2[C@@H]1O[C@H](CO)[C@@H](O)[C@H]1O [adenosine]
cellular metabolic activity pattern at 1 mM adenosine ([1]; 1 mM adenosine, hypoxia, FIG. 3): showed a similar pattern with the cells grown in the hypoxic condition without supply of adenosine
long term effect: resuming proliferation after adenosine supply is stopped ([1]; 22 days under the effect of adenosine, various doses, FIG. 4): still demonstrated the ability to restore its normal proliferation rate
cellular (metabolic) activity under hypoxic conditions ([1]; C2C12 passage 17, hypoxia 0.1% O2, daily adenosine up to 7 days, FIG. 2): maintained a steady state of cellular activity
effect of dose on degree of cellular activity ([1]; adenosine dose increased from 1 to 10 mM, hypoxic conditions, FIG. 3): an escalation of steady hypometabolic state was maintained under hypoxic conditions
resumption of normal metabolic activity after removal of adenosine ([1]; adenosine removed at day 7, cells returned to normoxic conditions, FIG. 2): resumed their normal metabolic activity two days after adenosine was removed at day 7
minimum effective concentration of adenosine ([1]; hypoxic conditions, dose study, FIG. 3): about 1 mM
cellular viability and tissue architecture (muscle tissue): preservation of cellular viability and tissue architecture
